{
  "source": "patent US20120142718A1",
  "about": "(priority 2007, published 2012)",
  "key": {"[1]": {"assay_type": "physicochemical"}, "μ-opioid receptor": {"target": "T1, μ-opioid receptor (Homo sapiens, UniProt P35372)", "T1 construct": "expressed in transfected cells; host or cells: HEK-293 cells", "T1 sequence (P35372 whole entry)": "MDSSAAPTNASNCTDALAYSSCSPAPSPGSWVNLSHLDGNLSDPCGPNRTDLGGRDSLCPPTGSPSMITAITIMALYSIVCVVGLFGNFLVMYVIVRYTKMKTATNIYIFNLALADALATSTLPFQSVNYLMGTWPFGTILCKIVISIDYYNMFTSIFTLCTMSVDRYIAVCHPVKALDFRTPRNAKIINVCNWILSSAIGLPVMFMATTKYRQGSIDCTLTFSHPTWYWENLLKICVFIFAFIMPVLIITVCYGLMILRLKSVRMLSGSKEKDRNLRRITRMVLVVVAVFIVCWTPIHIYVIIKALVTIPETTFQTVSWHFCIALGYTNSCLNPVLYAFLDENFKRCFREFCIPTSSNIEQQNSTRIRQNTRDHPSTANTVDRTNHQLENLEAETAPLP", "assay": "biochemical", "assay_type": "binding"}, "[2]": {"details": "male, Sprague-Dawley, rat, in vivo, 20 mg/kg"}},
  "note": "Read-outs that look alike come from different tables or passages of the source.",
  "data": [
    {"compound": "CN(CCN)C(=O)Oc1ccc(C[N+]2(C)CC[C@]34c5c6ccc(O)c5OC3C(=O)CCC4[C@H]2C6)cc1.Cl.[Cl-]", "note": "(stereo partly shown) [Compound A]", "values": [
      {"measurement": "% production of hydromorphone 20 hrs", "setting": "[1]; pH 7.5", "value": 70, "unit": "%"},
      {"measurement": "% production of hydromorphone 20 hrs", "setting": "[1]; pH 10", "value": 100, "unit": "%"}
    ]},
    {"compound": "CN(CCNC(=O)[C@@H](N)CCCNC(=N)N)C(=O)Oc1ccc(C[N@@+]2(C)CC[C@]34c5c6ccc(O)c5O[C@H]3C(=O)CC[C@H]4[C@H]2C6)cc1", "note": "[Example 1]", "values": [
      {"measurement": "IC50", "setting": "μ-opioid receptor", "value": 250, "unit": "nM"}
    ]},
    {"compound": "COc1ccc2c3c1O[C@H]1C(=O)CC[C@H]4[C@@H](C2)N(C)CC[C@]314", "note": "[Hydrocodone]", "values": [
      {"measurement": "Cmax HC (ng/ml) following PO dosing", "setting": "[2]", "value": 23.6, "unit": "ng/mL"}
    ]}
  ]
}
